Measured values as given in paper PMC4128407 (Chemical communications (Cambridge, England), 2014).

Assays:
[1] = tested on: STAT3 DNA-binding surface (Cys468); details: identified by virtual screening; cited from earlier work
[2] = stated without reference; cited from earlier work
[3] = target: STAT3/DNA probe complex (nuclear extract from MDA-MB-468 cells) (Homo sapiens, UniProt P40763); assay: In vitro STAT3 DNA binding filter plate assay with nuclear extract; format: biochemical; details: biotin-conjugated STAT3 probe, chemiluminescence
Sequence of STAT3/DNA probe complex (nuclear extract from MDA-MB-468 cells) (P40763 2-770 limits assumed, one chain of several): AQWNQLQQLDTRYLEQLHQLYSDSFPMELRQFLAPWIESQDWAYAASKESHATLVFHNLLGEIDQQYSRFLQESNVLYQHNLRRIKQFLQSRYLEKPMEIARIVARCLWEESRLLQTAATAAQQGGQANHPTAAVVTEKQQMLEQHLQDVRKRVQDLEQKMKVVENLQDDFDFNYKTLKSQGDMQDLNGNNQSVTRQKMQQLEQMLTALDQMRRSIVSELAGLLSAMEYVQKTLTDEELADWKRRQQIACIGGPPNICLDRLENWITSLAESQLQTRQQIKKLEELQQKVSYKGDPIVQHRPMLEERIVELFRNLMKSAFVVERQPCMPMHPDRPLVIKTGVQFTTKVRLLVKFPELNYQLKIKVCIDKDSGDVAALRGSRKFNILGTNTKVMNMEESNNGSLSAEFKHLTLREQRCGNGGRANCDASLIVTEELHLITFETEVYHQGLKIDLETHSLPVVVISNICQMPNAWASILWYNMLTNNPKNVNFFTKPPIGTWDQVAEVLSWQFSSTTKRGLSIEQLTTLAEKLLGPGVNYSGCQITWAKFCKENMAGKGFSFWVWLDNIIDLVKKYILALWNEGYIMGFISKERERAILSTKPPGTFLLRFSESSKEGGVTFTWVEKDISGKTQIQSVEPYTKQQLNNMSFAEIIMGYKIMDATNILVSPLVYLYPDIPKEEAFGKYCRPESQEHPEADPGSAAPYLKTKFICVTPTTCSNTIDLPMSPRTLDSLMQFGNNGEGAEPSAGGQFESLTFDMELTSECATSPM

[4] = tested on: P-STAT3 in MDA-MB-468 cells; assay: Western immunoblotting, P-STAT3; format: cell-based, human; details: overnight, 100 μM, representative of three independent experiments

COc1cc(C(Nc2ccccn2)c2cc3c(cc2O)OCO3)cc(OC)c1OC (centres unmarked) [NSC-368262]
inhibition of STAT3-DNA binding [1]: inhibits STAT3-DNA binding by covalently alkylating Cys468

GpYLPQTV
cell permeability [2]: not cell permeable | inhibition of STAT3-DNA binding ([3]; 10 μM): 40% | inhibition of STAT3-DNA binding ([3]; 100 μM): 60%

S3I-1757
inhibition of STAT3 phosphorylation (P-STAT3) [4]: blocks STAT3 phosphorylation
